Test system: NSG host mice
Experiment: xGVHD model with SHP1/2 inhibitor-treated TEFF cells (Example 16)
Assay type: in vivo
Details: for Tbet+: engrafted human T cells; for Tbet+ / TNF-α / Absolute no. of Foxp3+ T cells expressing IFN-γ / Absolute no. of Foxp3+ T cells expressing IL-2 / Absolute no. of Foxp3+ T cells expressing TNF-α / Absolute no. of Foxp3− T cells expressing IL-2 / Absolute no. of Foxp3− T cells expressing TNF-α: TEFF & PDL1-LV transduced T cells; for Post LPS survival (%): human TEFF cells + monos + TPDL1, inhibitor treatment of Teff 100 μM, LPS day 5; for TNF-α: serum 120 min after LPS; for Absolute no. of Foxp3+ T cells expressing IFN-γ / Absolute no. of Foxp3+ T cells expressing IL-2 / Absolute no. of Foxp3+ T cells expressing TNF-α / Absolute no. of Foxp3− T cells expressing IL-2 / Absolute no. of Foxp3− T cells expressing TNF-α / Absolute no. of Foxp3− T cells expressing IFN-γ: spleen day 6, PMA/ionomycin; for Absolute no. of Foxp3− T cells expressing IFN-γ: TEFF (inhibitor-treated ex vivo where labelled) & PDL1-LV transduced T cells
Source text: Because PD1 receptor signaling occurs via SHP1/2, it was next hypothesized that ex vivo pharmacologic inhibition of this pathway using prevanadate and NSC87877 might also generate TEFF cells (TEFFShp1/2^in) resistant to the tolerizing effect of PDL1. NSG host mice received a combination of human Th1 cells (either unmodified, pervanadate-treated, or NSC87877-treated) and PDL1-LV transduced T cells. At day 6, absolute numbers of human T cells engrafted in the spleen were enumerated. Splenocyes were stimulated (PMA/ionomycin) and the absolute number of Foxp3-negative T cells expressing IFN-γ (i), IL-2 (ii), and TNF-α (iii) were quantified; conversely, […]
Recipients were challenged with LPS and serum was harvested 120 min later for measurement of TNF-α. Absolute numbers of engrafted human T cells expressing T-bet were quantified.
Cohorts of host mice received the human cell inocula specified, followed by LPS administration on day 5 post-transfer for assessment of lethal cytokine-mediated xGVHD.

Compound: O=S(=O)(O)c1ccc2cc(N=Nc3cc(S(=O)(=O)O)c4cccnc4c3O)ccc2c1 [NSC87877]
- Tbet+: ~2.7 ×10^3
- Post LPS survival (%): 0%
- TNF-α: ~0.42 µg/mL
- Absolute no. of Foxp3+ T cells expressing IFN-γ: ~0.1 ×10^3
- Absolute no. of Foxp3+ T cells expressing IL-2: ~1.4 ×10^3
- Absolute no. of Foxp3+ T cells expressing TNF-α: ~1.3 ×10^3
- Absolute no. of Foxp3− T cells expressing IL-2: ~2.6 ×10^3
- Absolute no. of Foxp3− T cells expressing TNF-α: ~6.0 ×10^3
- Absolute no. of Foxp3− T cells expressing IFN-γ: ~1.1 ×10^3

Compound: pervanadate
- Tbet+: ~2.0 ×10^3
- Post LPS survival (%): 33%
- TNF-α: ~0.37 µg/mL
- Absolute no. of Foxp3+ T cells expressing IFN-γ: ~.3 ×10^3
- Absolute no. of Foxp3+ T cells expressing IL-2: ~1.3 ×10^3
- Absolute no. of Foxp3+ T cells expressing TNF-α: ~0.4 ×10^3
- Absolute no. of Foxp3− T cells expressing IL-2: ~2 ×10^3
- Absolute no. of Foxp3− T cells expressing TNF-α: ~3.9 ×10^3
- Absolute no. of Foxp3− T cells expressing IFN-γ: ~1.5 ×10^3

Source: patent US20120251514A1, “MODULATED PROGRAMMED DEATH LIGAND-1” (University Health Network, priority 2009, published 2012)
